Measured values as given in patent publication US20110263429A1, “Pesticidal Combinations” (priority 2008, published 2011).

Assays:
[1] = tested on: cutworm (Spodoptera littoralis); assay: Field seed-treatment trial, plant count per plot; type: in vivo; conditions: field with heavy Spodoptera littoralis population, plants per plot counted 13 days after planting, 4 replicates, fludioxonil + mefenoxam base treatment
Text: (§1) An unexpected effect exists whenever the action of an active ingredient combination is greater than the sum of the actions of the individual components.
(§2) The action to be expected E for a given active ingredient combination obeys the so-called COLBY formula and can be calculated as follows (COLBY, S. R. “Calculating synergistic and antagonistic responses of herbicide combination”. Weeds, Vol. 15, pages 20-22; 1967):
(§3) ppm=milligrams of active ingredient (=a.i.) per liter of spray mixture X=% action by active ingredient A) using p ppm of active ingredient Y=% action by active ingredient B) using q ppm of active ingredient.
(§4) According to COLBY, the expected (additive) action of active ingredients A)+B) using p+q ppm of active ingredient is
(§5) If the action actually observed (O) is greater than the expected action (E), then the action of the combination is super-additive, i.e. there is a synergistic effect.
In a field having a heavy population of cutworm (Spodoptera littoralis), seeds are planted that have the following treatments: • (a) a compound of formula (X) (0.6 mg ai/seed) • (b) thiamethoxam (0.63 mg ai/seed) • (c) a compound of formula (X) (0.6 mg ai/seed)+thiamethoxam (0.63 mg ai/seed)
For all treatments, including check, fludioxonil (2.5 g ai/100 kg seeds) and mefenoxam (1.0 g ai/100 kg seeds) were used as a fungicide base treatment. […]

[2] = tested on: cutworm (Agrotis sp.); assay: Field seed-treatment trial, cutworm larvae count per plot; type: in vivo; conditions: for Control (%) Observed: seed treatment, field with heavy Agrotis sp. population, larvae per plot counted 22 days after planting, 4 replicates, fludioxonil + mefenoxam base treatment
Text: as §1, §2, §3, §4, §5
In a field having a heavy population of cutworm (Agrotis sp.), seeds are planted that have the following treatments: • (a) a compound of formula (X) (0.6 mg ai/seed) • (b) thiamethoxam (0.63 mg ai/seed) • (c) a compound of formula (X) (0.6 mg ai/seed)+thiamethoxam (0.63 mg ai/seed)
For all treatments, including check, fludioxonil (2.5 g ai/100 kg seeds) and mefenoxam (1.0 g ai/100 kg seeds) were used as a fungicide base treatment.
Assessment: Count number larvae per plot (22 days after planting) Number of replicates: 4

| Compound | % Control Observed [1] | Control (%) Observed [2] | Control (%) Colby expected ([2]; expected (additive) action by COLBY formula, Agrotis sp., 22 days after planting) |
| --- | --- | --- | --- |
| CN1COCN(Cc2cnc(Cl)s2)/C1=N\[N+](=O)[O-] [(b), thiamethoxam] | 40% | 31% | – |
| mixture of 5,6-Dihydro-3′-O-ethyl Spinosyn J (RN: 187166-40-1 and 3′-O-Ethyl Spinosyn L (RN: 187166-15-0) in a weight ratio of 50-90%:10-50% [(a)] | 48% | 50% | 15% |
